Assays:
[1] = target: Proto-oncogene tyrosine-protein kinase receptor Ret (Homo sapiens, UniProt P07949); assay: Inhibition of wild type RET (unknown origin) by FRET-based ZLyte kinase assay
[2] = target: Proto-oncogene tyrosine-protein kinase receptor Ret (Homo sapiens, UniProt P07949, V804L); assay: Inhibition of RET V804L mutant (unknown origin) by FRET-based ZLyte kinase assay
[3] = target: Proto-oncogene tyrosine-protein kinase receptor Ret (Homo sapiens, UniProt P07949, M918T); assay: Inhibition of RET M918T mutant (unknown origin) by FRET-based ZLyte kinase assay
Chain of Proto-oncogene tyrosine-protein kinase receptor Ret (Homo sapiens, UniProt P07949, M918T) (P07949 29-1114 M918T limits assumed): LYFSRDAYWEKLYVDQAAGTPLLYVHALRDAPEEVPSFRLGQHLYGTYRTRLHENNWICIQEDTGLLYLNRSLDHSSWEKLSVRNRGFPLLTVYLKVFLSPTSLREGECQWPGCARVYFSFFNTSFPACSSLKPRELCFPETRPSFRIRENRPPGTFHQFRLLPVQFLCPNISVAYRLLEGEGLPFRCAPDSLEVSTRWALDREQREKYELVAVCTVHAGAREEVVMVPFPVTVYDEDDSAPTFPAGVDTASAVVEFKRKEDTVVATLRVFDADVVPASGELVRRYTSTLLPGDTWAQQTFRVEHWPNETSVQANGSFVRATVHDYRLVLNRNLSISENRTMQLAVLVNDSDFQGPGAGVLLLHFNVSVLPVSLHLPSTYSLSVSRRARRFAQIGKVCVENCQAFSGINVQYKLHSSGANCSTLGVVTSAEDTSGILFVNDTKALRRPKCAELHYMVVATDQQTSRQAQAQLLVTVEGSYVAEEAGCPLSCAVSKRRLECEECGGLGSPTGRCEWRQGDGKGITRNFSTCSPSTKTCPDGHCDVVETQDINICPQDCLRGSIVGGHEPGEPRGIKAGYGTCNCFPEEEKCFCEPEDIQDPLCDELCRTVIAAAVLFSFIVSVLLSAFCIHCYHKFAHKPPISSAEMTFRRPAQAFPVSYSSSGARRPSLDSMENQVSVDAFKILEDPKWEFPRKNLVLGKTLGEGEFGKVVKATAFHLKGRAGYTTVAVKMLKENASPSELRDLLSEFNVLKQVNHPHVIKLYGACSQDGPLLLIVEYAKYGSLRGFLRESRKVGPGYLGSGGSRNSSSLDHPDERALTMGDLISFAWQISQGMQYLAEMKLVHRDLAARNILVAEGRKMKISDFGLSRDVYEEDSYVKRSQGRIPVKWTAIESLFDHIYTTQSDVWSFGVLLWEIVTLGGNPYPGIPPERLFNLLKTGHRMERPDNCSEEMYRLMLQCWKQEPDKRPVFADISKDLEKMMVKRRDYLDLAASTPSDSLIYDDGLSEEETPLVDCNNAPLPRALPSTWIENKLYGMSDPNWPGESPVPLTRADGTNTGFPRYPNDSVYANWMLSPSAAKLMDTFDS

[4] = target: Proto-oncogene tyrosine-protein kinase receptor Ret (Homo sapiens, UniProt P07949, G810R); assay: Inhibition of RET G810R mutant (unknown origin) by FRET-based ZLyte kinase assay
Chain of Proto-oncogene tyrosine-protein kinase receptor Ret (Homo sapiens, UniProt P07949, G810R) (P07949 29-1114 G810R limits assumed): as the sequence (P07949 29-1114 M918T limits assumed) above, with G782R, T890M counted along it

[5] = test system: Proto-oncogene tyrosine-protein kinase receptor Ret (Homo sapiens), P07949 [G810R]; assay: Potency index, ratio of selpercatinib IC50 to test compound IC50 for inhibition of RET G810R mutant (unknown origin) by FRET-based ZLyte kinase assay
Chain of Proto-oncogene tyrosine-protein kinase receptor Ret (Homo sapiens), P07949 [G810R] (P07949 whole entry G810R): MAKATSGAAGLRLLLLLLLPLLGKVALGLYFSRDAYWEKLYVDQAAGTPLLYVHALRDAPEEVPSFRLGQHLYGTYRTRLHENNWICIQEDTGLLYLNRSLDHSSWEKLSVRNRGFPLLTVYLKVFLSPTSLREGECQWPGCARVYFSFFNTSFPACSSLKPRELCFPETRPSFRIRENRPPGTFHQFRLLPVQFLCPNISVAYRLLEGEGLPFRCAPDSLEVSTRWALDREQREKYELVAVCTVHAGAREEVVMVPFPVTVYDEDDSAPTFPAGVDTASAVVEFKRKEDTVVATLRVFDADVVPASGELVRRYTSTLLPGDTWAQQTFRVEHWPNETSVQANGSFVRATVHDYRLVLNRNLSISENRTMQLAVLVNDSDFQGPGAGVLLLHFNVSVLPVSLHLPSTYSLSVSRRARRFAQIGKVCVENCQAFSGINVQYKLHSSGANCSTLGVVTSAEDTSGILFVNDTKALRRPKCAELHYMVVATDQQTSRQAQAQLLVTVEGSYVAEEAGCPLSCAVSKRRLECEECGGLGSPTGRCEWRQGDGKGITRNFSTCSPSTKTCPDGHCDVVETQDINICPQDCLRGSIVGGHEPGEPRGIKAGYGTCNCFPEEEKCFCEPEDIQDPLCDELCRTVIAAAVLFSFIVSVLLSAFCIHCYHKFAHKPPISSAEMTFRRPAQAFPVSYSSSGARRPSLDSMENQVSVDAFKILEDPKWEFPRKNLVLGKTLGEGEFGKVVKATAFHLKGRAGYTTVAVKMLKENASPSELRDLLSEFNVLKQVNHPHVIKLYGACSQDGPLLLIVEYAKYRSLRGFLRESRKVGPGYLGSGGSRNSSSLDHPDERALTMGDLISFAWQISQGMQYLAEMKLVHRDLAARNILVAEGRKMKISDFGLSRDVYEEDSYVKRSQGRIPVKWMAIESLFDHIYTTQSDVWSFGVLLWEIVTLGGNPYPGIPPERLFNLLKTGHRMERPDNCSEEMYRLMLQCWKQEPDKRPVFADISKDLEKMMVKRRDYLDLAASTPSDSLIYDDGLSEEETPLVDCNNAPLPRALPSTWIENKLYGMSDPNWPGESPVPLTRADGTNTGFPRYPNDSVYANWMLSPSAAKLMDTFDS

[6] = test system: Proto-oncogene tyrosine-protein kinase receptor Ret (Homo sapiens), P07949 [G810R]; assay: Potency index, ratio of Vandetanib IC50 to test compound IC50 for inhibition of RET G810R mutant (unknown origin) by FRET-based ZLyte kinase assay
[7] = test system: Proto-oncogene tyrosine-protein kinase receptor Ret (Homo sapiens), P07949 [V804L]; assay: Potency index, ratio of Vandetanib IC50 to test compound IC50 for inhibition of RET V804L mutant (unknown origin) by FRET-based ZLyte kinase assay
Chain of Proto-oncogene tyrosine-protein kinase receptor Ret (Homo sapiens), P07949 [V804L] (P07949 whole entry V804L): as the sequence (P07949 whole entry G810R) above, with V804L, R810G counted along it

BaF3 [8] = assay: Antiproliferative activity against mouse BaF3 cells harbouring KIF5B-RET wild type assessed as inhibition of cell viability; format: functional, cell-based
BaF3 [9] = assay: Antiproliferative activity against mouse BaF3 cells harbouring CCDC6-RET wild type assessed as inhibition of cell viability; format: functional, cell-based
BaF3 [10] = assay: Antiproliferative activity against mouse BaF3 cells harbouring KIF5B-RET V804L mutant assessed as inhibition of cell viability; format: functional, cell-based
BaF3 [11] = assay: Antiproliferative activity against mouse BaF3 cells harbouring KIF5B-RET G810R mutant assessed as inhibition of cell viability; format: functional, cell-based
BaF3 [12] = assay: Antiproliferative activity against mouse BaF3 cells harbouring CCDC6-RET G810R mutant assessed as inhibition of cell viability; format: functional, cell-based
BaF3 [13] = assay: Antitumor activity against mouse BaF3 cells harbouring KIF5B-RET-wild type xenografted in mouse model assessed as tumor growth inhibition at 10 mg/kg BID measured upto 14 days relative to control; format: functional; conditions: BaF3, 336 h, time <= 14 day, read-out: TGI
BaF3 [14] = assay: Antitumor activity against mouse BaF3 cells harbouring KIF5B-RET G810R mutant xenografted in mouse model assessed as tumor growth inhibition at 10 mg/kg BID measured upto 14 days relative to control; format: functional; conditions: BaF3, 336 h, time <= 14 day, read-out: TGI

Chain of Proto-oncogene tyrosine-protein kinase receptor Ret (Homo sapiens, UniProt P07949) (P07949 whole entry): as the sequence (P07949 whole entry G810R) above, with R810G counted along it
Chain of Proto-oncogene tyrosine-protein kinase receptor Ret (Homo sapiens, UniProt P07949, V804L) (P07949 29-1114 V804L limits assumed): as the sequence (P07949 29-1114 M918T limits assumed) above, with V776L, T890M counted along it

COc1ccc(CN2C3CC2CN(c2ccc(-c4nc(-c5ccc(F)cc5)cc5ncccc45)cn2)C3)cn1 was tested, and the IC50 [1] was 242 nM, the IC50 [2] was 517 nM and the IC50 [3] was 408 nM.

For COc1ccc(CN2C3CC2CN(c2ccc(-c4cccc5nccnc45)cn2)C3)cn1, the IC50 [1] was 172 nM, the IC50 [2] was 135 nM and the IC50 [3] was 141 nM.

COc1ccc(CN2C3CC2CN(c2ccc(-c4nc(-c5cnn(C)c5)cc5ncccc45)cn2)C3)cc1F was tested, and the IC50 [1] was 5.5 nM, the IC50 [2] was 0.3 nM and the IC50 [3] was 0.6 nM. The IC50 [4] was 37.8 nM and the Ratio IC50 [5] was 6.

COc1ccc(CN2C3CC2CN(c2ccc(-c4cccc5ncncc45)cn2)C3)cn1 showed an IC50 [1] of 86.3 nM, an IC50 [2] of 70.4 nM and an IC50 [3] of 91.5 nM. It also gave an IC50 [4] of 307 nM.

Molecule COc1ccc(CN2C3CC2CN(c2ccc(-c4cccc5cnccc45)cn2)C3)cn1 has an IC50 [1] of 591 nM, an IC50 [2] of 786 nM and an IC50 [3] of 615 nM.

COc1ccc(CN2C3CC2CN(c2ccc(-c4nc(-c5ccncc5)cc5ncccc45)cn2)C3)cn1 gave an IC50 [1] of 166 nM, an IC50 [2] of 328 nM and an IC50 [3] of 215 nM.

COc1ccc(CN2C3CC2CN(c2ccc(-c4nc(C)cc5ncccc45)cn2)C3)cn1 gave an IC50 [1] of 28.5 nM, an IC50 [2] of 18.6 nM and an IC50 [3] of 33.6 nM. The IC50 [4] was 416 nM.

In the case of COc1ccc(CN2C3CC2CN(c2ccc(-c4nc(-c5cnn(C)c5)cc5ncccc45)cn2)C3)cc1Cl, the IC50 [1] is reported as 25.1 nM, the IC50 [2] is reported as 8.5 nM and the IC50 [3] is reported as 11.3 nM. It also gave an IC50 [4] of 85.9 nM.

COc1ccc(CN2C3CC2CN(c2ccc(-c4nc(-c5cn[nH]c5)cc5ncccc45)cn2)C3)cn1 gave an IC50 [1] of 5.9 nM, an IC50 [2] of 1.1 nM and an IC50 [3] of 6.5 nM. It also gave an IC50 [4] of 69.1 nM and a Ratio IC50 [5] of 4.

Cn1cc(-c2cc3ncccc3c(-c3ccc(N4CC5CC(C4)N5Cc4ccc(Cl)nc4)nc3)n2)cn1 was tested, and the IC50 [1] was 9.8 nM, the IC50 [2] was 2.3 nM and the IC50 [3] was 5.1 nM. The IC50 [4] was 361 nM.

Work on COc1ccc(CN2C3CC2CN(c2ccc(-c4cccc5c4OCCO5)cn2)C3)cn1 yielded an IC50 [1] greater than 1000 nM, an IC50 [2] greater than 1000 nM and an IC50 [3] greater than 1000 nM.

Cn1cc(-c2cc3ncccc3c(-c3ccc(N4CC5CC(C4)N5C(=O)CN4CCOCC4)nc3)n2)cn1 showed an IC50 [1] of 112 nM, an IC50 [2] of 121 nM and an IC50 [3] of 107 nM.

For COc1ccc(CN2C3CC2CN(c2ccc(-c4nc(-c5cnn(C)c5)cc5ncccc45)cn2)C3)cc1Br, the IC50 [1] was 41.3 nM, the IC50 [2] was 13.7 nM and the IC50 [3] was 17.2 nM. For the same molecule, the IC50 [4] was 107 nM.

COc1ccc(CN2C3CC2CN(c2ccc(-c4nc(-c5cnn(C)c5)cc5ncccc45)cn2)C3)cc1[N+](=O)[O-] was tested, and the IC50 [1] was 247 nM, the IC50 [2] was 95.2 nM and the IC50 [3] was 127 nM.

Molecule Cn1cc(-c2cc3ncccc3c(-c3ccc(N4CC5CC(C4)N5Cc4cccnc4)nc3)n2)cn1 has an IC50 [1] of 26.7 nM, an IC50 [2] of 41.1 nM and an IC50 [3] of 33.5 nM. It also gave an IC50 [4] of 371 nM.

For COc1ccc(CN2C3CC2CN(c2ccc(-c4nc(-c5cc[nH]n5)cc5ncccc45)cn2)C3)cn1, the IC50 [1] was 68.2 nM, the IC50 [2] was 55.7 nM and the IC50 [3] was 49.7 nM. It also gave an IC50 [4] of 109 nM.

In the case of COc1ccc(CN2C3CC2CN(c2ccc(-c4nccc5ncccc45)cn2)C3)cn1, the IC50 [1] is reported as 57.6 nM, the IC50 [2] is reported as 42.2 nM and the IC50 [3] is reported as 35.8 nM. It also gave an IC50 [4] of 186 nM, a Ratio IC50 [6] of 4 and a Ratio IC50 [7] of 16.

COc1ccc(CN2C3CC2CN(c2ccc(-c4nc(-c5cnn(C)c5)cc5ncccc45)cn2)C3)cc1C(F)(F)F gave an IC50 [1] of 37.5 nM, an IC50 [2] of 22.6 nM and an IC50 [3] of 14.7 nM. It also gave an IC50 [4] of 116 nM.

In the case of COc1ccc(CN2C3CC2CN(c2ccc(-c4nc(-c5cnn(C)c5)cc5ncccc45)cn2)C3)cc1, the IC50 [1] is reported as 7.6 nM, the IC50 [2] is reported as 3.1 nM and the IC50 [3] is reported as 4.7 nM. It also gave an IC50 [4] of 114 nM.

Work on COc1ccc(CN2C3CC2CN(c2ccc(-c4nc(-c5cnn(C)c5)cc5ncccc45)cn2)C3)cn1 yielded an IC50 [1] of 3.8 nM, an IC50 [2] of 0.4 nM and an IC50 [3] of 1.2 nM. It also gave an IC50 [4] of 56.2 nM and a Ratio IC50 [5] of 4.

Molecule Cn1cc(-c2cc3ncccc3c(-c3ccc(N4CC5CC(C4)N5C(=O)Cc4cc(F)cc(F)c4)nc3)n2)cn1 has an IC50 [1] of 6.7 nM, an IC50 [2] of 4.7 nM and an IC50 [3] of 6.7 nM. The IC50 [4] was 221 nM.

Cn1cc(-c2cc3ncccc3c(-c3ccc(N4CC5CC(C4)N5C(=O)Cc4cccc(F)c4)nc3)n2)cn1 was tested, and the IC50 [1] was 4.8 nM, the IC50 [2] was 2.3 nM and the IC50 [3] was 3 nM. For the same molecule, the IC50 [4] was 149 nM.

With Cn1cc(-c2cc3ncccc3c(-c3ccc(N4CC5CC(C4)N5Cc4ccc(F)nc4)nc3)n2)cn1 the IC50 [1] was 16.8 nM, the IC50 [2] was 5.6 nM and the IC50 [3] was 9.3 nM. For the same molecule, the IC50 [4] was 237 nM.

In the case of COc1ccc(CN2C3CC2CN(c2ccc(-c4nc(C5CC5)cc5ncccc45)cn2)C3)cn1, the IC50 [1] is reported as 15.7 nM, the IC50 [2] is reported as 12.5 nM and the IC50 [3] is reported as 17.3 nM. It also gave an IC50 [4] of 538 nM.

With COc1ccc(CN2C3CC2CN(c2ccc(-c4nc(-c5cnn(C)c5)cc5ncccc45)cn2)C3)cc1N the IC50 [1] was 166 nM, the IC50 [2] was 86.4 nM and the IC50 [3] was 176 nM.

Cn1cc(-c2cc3ncccc3c(-c3ccc(N4CC5CC(C4)N5C(=O)Cc4cccc(Cl)c4)nc3)n2)cn1 was tested, and the IC50 [1] was 9.1 nM, the IC50 [2] was 4 nM and the IC50 [3] was 5.9 nM. The IC50 [4] was 180 nM.

COc1ccc(CC(=O)N2C3CC2CN(c2ccc(-c4nc(-c5cnn(C)c5)cc5ncccc45)cn2)C3)cn1 was tested, and the IC50 [1] was 5.7 nM, the IC50 [2] was 2.6 nM and the IC50 [3] was 4.9 nM. It also gave an IC50 [4] of 132 nM.

With Cc1ccc(CN2C3CC2CN(c2ccc(-c4nc(-c5cnn(C)c5)cc5ncccc45)cn2)C3)cn1 the IC50 [1] was 12.5 nM, the IC50 [2] was 14.4 nM and the IC50 [3] was 16.2 nM. For the same molecule, the IC50 [4] was 437 nM.

For Cn1cc(-c2cc3ncccc3c(-c3ccc(N4CC5CC(C4)N5C(=O)CC4CCOCC4)nc3)n2)cn1, the IC50 [1] was 62.2 nM, the IC50 [2] was 91.4 nM and the IC50 [3] was 54.9 nM.

COc1ccc(CN2C3CC2CN(c2ccc(-c4nc(-c5ccn(C)n5)cc5ncccc45)cn2)C3)cn1 was tested, and the IC50 [1] was 49.4 nM, the IC50 [2] was 21.1 nM and the IC50 [3] was 50.4 nM. It also gave an IC50 [4] of 96.7 nM.

Molecule COc1ccc(CN2C3CC2CN(c2ccc(-c4cc(OCC(C)(C)O)cn5ncc(C#N)c45)cn2)C3)cn1 [SELPERCATINIB] has an IC50 (BaF3 [8]) of 8.2 nM, an IC50 (BaF3 [9]) of 9.5 nM and an IC50 (BaF3 [10]) of 17.8 nM. For the same molecule, the IC50 (BaF3 [11]) was 2170 nM, the IC50 (BaF3 [12]) was 896 nM and the inhibition in vivo at 10 mg/kg (BaF3 [13]) was 89%. It also gave an inhibition in vivo at 10 mg/kg (BaF3 [14]) of 20%.

COc1ccc(CN2C3CC2CN(c2ccc(-c4cccc5ncccc45)cn2)C3)cn1 was tested, and the IC50 [1] was 198 nM, the IC50 [2] was 285 nM and the IC50 [3] was 304 nM.

With COc1ccc(CN2C3CC2CN(c2ccc(-c4nc(Cl)cc5ncccc45)cn2)C3)cn1 the IC50 [1] was 69.3 nM, the IC50 [2] was 57.2 nM and the IC50 [3] was 58.4 nM. The IC50 [4] was 229 nM.

Reference: ChEMBL document CHEMBL6127078, “Discovery of 7-(1-methyl-1H-pyrazol-4-yl)-1,6-naphthyridine derivatives as potent inhibitors of rearranged during transfection (RET) and RET solvent-front mutants for overcoming selpercatinib resistance” (Eur J Med Chem, 2024)
